What was measured:
Experiment in all cases: quantitative drug diffusion assay (zone of inhibition, CLSI)
Assay type in all cases: cell-based
E. coli M-138 = test system: E. coli M-138; parameters: key to CLSI susceptibility interpretation: (R): Resistant; (I): Intermediate; (S): Sensitive (Interpretation as per CLSI recommendations, 2010)
Excerpt: (§1) Antibacterial activity of cefepime combination with tazobactam against various bacterial strains, including those bacteria that are known to product one or more beta-lactamase, was investigated in quantitative drug diffusion assay performed as per CLSI recommendations (Clinical and Laboratory Standards Institute (CLSI), performance Standards for Antimicrobial Susceptibility Testing, 20th Informational Supplement, M 100-S20, Volume 30, No. 1, 2010).
(§2) In a typical study, overnight grown bacterial cultures after appropriate dilution were seed inoculated in the molten, cooled agar media and plates poured. Antibacterial agents containing 6 mm diameter discs were placed on the top of the agar surface. Zone of inhibition based observation was performed after 16 to 18 hours of incubation at 35±2° C. in ambient air. These assays are routinely used in determining possibility of treating a particular infection using given antibacterial agent or a composition. In general, zone inhibition values in the sensitive (S) range indicate that the strain is susceptible to that antibacterial agent or composition. It is generally assumed that the antibacterial agent or the combination under consideration would not be effective in treating the infection, if the zone inhibition values are in the resistant (R) range.

E. coli 7MP = test system: E. coli 7MP; parameters: key: (R): Resistant; (I): Intermediate; (S): Sensitive (Interpretation as per CLSI recommendations, 2010); settings: CLSI recommendations, 2010
Excerpt: as §1, §2

E. coli B-123 = test system: E. coli B-123; parameters: key: (R): Resistant; (I): Intermediate; (S): Sensitive (Interpretation as per CLSI recommendations, 2010); settings: CLSI recommendations, 2010
Excerpt: as §1, §2

E. coli S-112 = test system: E. coli S-112; parameters: key: (R): Resistant; (I): Intermediate; (S): Sensitive (Interpretation as per CLSI recommendations, 2010); settings: CLSI recommendations, 2010
Excerpt: as §1, §2

E. coli M50 = test system: E. coli M50; parameters: key: (R): Resistant; (I): Intermediate; (S): Sensitive (Interpretation as per CLSI recommendations, 2010); settings: CLSI recommendations, 2010
Excerpt: as §1, §2

E. coli B-89 = test system: E. coli B-89; parameters: key: (R): Resistant; (I): Intermediate; (S): Sensitive (Interpretation as per CLSI recommendations, 2010); settings: CLSI recommendations, 2010
Excerpt: as §1, §2

With `CO/N=C(\C(=O)N[C@@H]1C(=O)N2C(C(=O)[O-])=C(C[N+]3(C)CCCC3)CS[C@H]12)c1csc(N)n1` [Cefepime, cefepime] the “Zone of Inhibition” value (E. coli M-138; 6 mm discs, 16 to 18 hours at 35±2° C.) was “Nil”, the CLSI susceptibility interpretation (E. coli M-138; CLSI recommendations, 2010) was “(R)” and the CLSI susceptibility interpretation (E. coli 7MP) was “(I)”. The CLSI susceptibility interpretation (E. coli B-123) was “(R)”, the CLSI susceptibility interpretation (E. coli S-112) was “(I)” and the CLSI susceptibility interpretation (E. coli M50) was “(R)”. For the same compound, the CLSI susceptibility interpretation (E. coli B-89) was “(R)”.

From US20180064691A1, “Antibacterial compositions” (WOCKHARDT LIMITED, priority 2016, published 2018)
